From patent publication US20230172958A1, “USE OF COMPOUNDS FOR TREATING VIRAL INFECTIONS” (priority 2020, published 2023) come the findings set out here.

Common to all, as to assay type: cell-based
In data set [1] the test system is V-ATPase. The data set can be described thus: V-ATPase ELISA (Human V-Type Proton ATPase ELISA kit) on treated MDAMB231 cells. The note with it: 100 nM (0.1 μM)/10,000 cells, 48 hours. Here is the method:
An ELISA test was performed using Human V-Type Proton ATPase ELISA kit (My BioSource Catlog no: MBS911862) to determine the V-ATPase inhibitory effect of the compounds of the present invention.
Procedure: 1.0 million cells of MDAMB231 (cell line rich in V-ATPase) were plated on 60 mm plates for 24 hours at 37° C. and 5% CO2. The cells were treated with the test compounds (Formula A to U) at a concentration of 100 nM (0.1 μM)/10,000 cells and incubated for 48 hours. After incubation the supernatant was discarded, the cells were washed with D.P.B.S. (Dulbecco's phosphate-buffered saline), scraped and stored at −80° C. for 48 hours. The cells were thawed, vortexed, homogenized for 7 minutes, followed by centrifugation for 3 minutes at 3000 R.P.M. The supernatant was taken for V-ATPase Assay.
Standards and samples were pipetted into the wells. Antibody specific for V-ATPase was pre-coated onto a microplate. Any V-ATPase present in the standard /sample would get bound by the immobilized antibody. After the incubation period any unbound substances were removed by washing and a biotin-conjugated antibody specific for V-ATPase was added to the wells and plates were re-incubated at 37° C. and 5% CO2. After washing, avidin conjugated Horseradish Peroxidase (HRP) was added to the wells. Following a wash to remove any unbound avidin-enzyme reagent, a substrate solution was added to the wells and colour developed was in proportion to the amount of V-ATPase bound in the initial step. The colour development was stopped, and the optical density was measured at 450 nm spectrophotometrically. The concentration of V-ATPase was then calculated by substituting the optical density in the regression equation obtained from the standards. Percent (%) reduction in V-ATPase was calculated by subtracting the amount of V-ATPase obtained from the untreated/conc. of V-ATPase in untreated X100.
For orientation: An ELISA detects its analyte on a solid surface through an enzyme-linked reagent.

For data set [2], the system named is Human Peripheral Blood Lymphocytes. The experiment in a line: MTT toxicity assay on normal cells. The note with it: 48 hours. Here is the method: Toxicity studies of compounds of the present invention on normal cells The toxicity study was performed on Human Peripheral Blood Lymphocytes obtained differential centrifugation of defibrinated blood. MTT assay for compound of the present invention was performed to determine its toxicity. MTT assay is a simple and sensitive assay where, metabolic reducing activity of the cells is measured. It was carried out in the following manner.
A required volume of cell suspension was prepared as per the cell plating efficiency. 200 μl of prepared cell suspension was added in labelled 96 well plates and the plates were placed in an incubator for 18-24 hours at 37° C. and 5% CO2. Then, 2 μl of respective compound dilution was added and the plates were placed in the incubator for 48 hours at 37° C. and 5% CO2. The suspension was aspirated from the plates and 100 μl of working MTT solution (0.5 mg/ml MTT prepared from 5 mg/ml MTT stock in 1× complete media) was added. The plates were incubated in the incubator for 4 hours at 37° C. and 5% CO2. The plates were spinned down, supernatant removed, 200 μl DMSO was added, mixed gently and placed in the incubator for 10 minutes at 37° C. and 5% CO2. The absorbance at 570 nm was read and percentage viability and IC50 value of the compounds was calculated using regression analysis.
A general note: Tetrazolium assays rely on reduction of a dye to a coloured formazan, in cell work by metabolically active cells.

In data set [3] the test system is SARS-CoV-2. The experiment in a line: Neutral Red reduction of virus-induced cytopathic effect (primary CPE assay) in Vero 76 cells. The note with it: Severe acute respiratory syndrome coronavirus 2, virus-inhibitory. Background: Damage to the host cells serves as the signal in cytopathic effect assays.
Data set [4] can be described thus: Neutral Red toxicity assay, uninfected cultures. Particulars: African green monkey, Vero 76 cells (uninfected monolayers), cell-inhibitory. How it is done: Confluent or near-confluent cell culture monolayers of Vero 76 cells were prepared in 96-well disposable microplates the day before testing. Cells were maintained in MEM (Minimum Essential Medium Eagle) supplemented with 5% FBS (Fetal Bovine Serum). For antiviral assays the same medium was used but with FBS reduced to 2% and supplemented with 50-μg/ml gentamicin.
Compounds were dissolved in DMSO, saline or the diluent. […] The test compound was prepared at four serial log10 concentrations, usually 0.1, 1.0, 10, and 100 μg/ml or μM. Lower concentrations were used when insufficient compound was supplied. Five microwells were used per dilution: three for infected cultures and two for uninfected toxicity cultures. Controls for the experiment consisted of six microwells that were infected and not treated (virus controls) and six that were untreated and uninfected (cell controls) on every plate. A known active drug was tested in parallel as a positive control drug using the same method as was applied for test compounds. The positive control was tested with every test run.
Growth media was removed from the cells and the test compound was applied in 0.1 ml volume to wells at 2× concentration. Virus, normally at ˜60 CCID50 (50% cell culture infectious dose) in 0.1 ml volume is added to the wells designated for virus infection. Medium devoid of virus was placed in toxicity control wells and cell control wells. […] The plates were then stained with 0.011% neutral red for approximately two hours at 37° C. in a 5% CO2 incubator. The neutral red medium was removed by complete aspiration, and the cells may be rinsed 1× with phosphate buffered solution (PBS) to remove residual dye. The PBS was completely removed, and the incorporated neutral red was eluted with 50% Sorensen's citrate buffer/50% ethanol for at least 30 minutes. Neutral red dye penetrates into living cells, thus, the more intense the red color, the larger the number of viable cells present in the wells. The dye content in each well was quantified using a spectrophotometer at 540 nm wavelength. The dye content in each set of wells was converted to a percentage of dye present in untreated control wells using a Microsoft Excel computer-based spreadsheet and normalized based on the virus control. The 50% effective (EC50, virus-inhibitory) concentrations and 50% cytotoxic (CC50, cell-inhibitory) concentrations are then calculated by regression analysis. The quotient of CC50 divided by EC50 gives the selectivity index (SI) value.

Turning to `COc1ccc(-c2ccc(OCCN3CCOCC3)c3ccccc23)cc1OC` [Compound of Formula U, 4-(2-(1-(3,4-dimethoxyphenyl)naphthalen-4-yloxy)ethyl)morpholine], the “reduction of V-ATPase (%)” value in data set [1] worked out at 16.57%. Moreover, in data set [2], the “IC50 (μM)” value is recorded as “No activity (Nontoxic)”.
For `c1ccc2c(-c3ccc4c(c3)OCO4)ccc(OCCCCNC3CCCCC3)c2c1` [Compound of Formula N, N-(4-(1-(benzo[d][1,3]dioxol-5-yl)naphthalen-4-yloxy)butyl)cyclohexanamine], the “reduction of V-ATPase (%)” value in data set [1] worked out at 6.3%.
As to `COc1cc2c(OCCCCN3CCOCC3)c3c(c(-c4ccc5c(c4)OCO5)c2cc1OC)C(=O)OC3` [Compound of Formula L, 4-(4-morpholinobutoxy)-9-(benzo[d][1,3]dioxol-5-yl)-6,7-dimethoxynaphtho[2,3-c]furan-1(3H)-one], the EC50 in data set [3] is above 0.34 µg/mL. In addition, in data set [1], the “reduction of V-ATPase (%)” value worked out at 21.0%. In data set [4], this compound gave a CC50 of 0.34 µg/mL. In addition, the “IC50 (μM)” value in data set [2] is on record as “No activity (Nontoxic)”.
As for `c1ccc2c(-c3ccc4c(c3)OCO4)ccc(OCCN3CCOCC3)c2c1` [Compound of Formula O, 4-(2-(1-(benzo[d][1,3]dioxol-5-yl)naphthalen-4-yloxy)ethyl)morpholine], the “reduction of V-ATPase (%)” value in data set [1] came to 20.26%. In addition, the “IC50 (μM)” value in data set [2] was “No activity (Nontoxic)”.
With `O=C(CN1CCNCC1)NCCOc1ccc(-c2ccc3c(c2)OCO3)c2ccccc12` [Compound of Formula T, N-(2-(1-(benzo[d][1,3]dioxol-5-yl)naphthalen-4-yloxy)ethyl)-2-(piperazin-1-yl)acetamide], in data set [1], the “reduction of V-ATPase (%)” value is on record as 81.9%.
For `O=S(=O)(Nc1ccc(-c2ccc3c(c2)OCO3)c2ccccc12)c1ccccc1` [Compound of Formula I, N-(1-(benzo[d][1,3]dioxol-5-yl)naphthalen-4-yl)benzenesulphonamide], the “reduction of V-ATPase (%)” value in data set [1] is on record as 20.56%. Also, in data set [2], the “IC50 (μM)” value is reported as “No activity (Nontoxic)”.
In the case of `O=S(=O)(Nc1ccc(-c2ccc3c(c2)OCO3)c2ccccc12)c1ccc(F)cc1` [Compound of Formula J, N-(1-(benzo[d][1,3]dioxol-5-yl)naphthalen-4-yl)-4-fluorobenzenesulphonamide], the “reduction of V-ATPase (%)” value in data set [1] is 60.96%.
On to `c1cc2c(cc1-c1ccc(OCCCCCCNC3CCCCC3)c3c1CCCC3)OCO2` [Compound of Formula Q, N-(6-(5-(benzo[d][1,3]dioxol-5-yl)-1,2,3,4-tetrahydronaphthalen-8-yloxy)hexyl)cyclohexanamine], for which, in data set [1], the “reduction of V-ATPase (%)” value was 77.42%.
The same measure, in the same setting: in the case of `C=CCNCCCCCCOc1ccc(-c2ccc3c(c2)OCO3)c2c1CCCC2` [Compound of Formula R, 6-(5-(benzo[d][1,3]dioxol-5-yl)-1,2,3,4-tetrahydronaphthalen-8-yloxy)-N-allylhexan-1-amine] it was 16.2%.
Consider `COc1cc2c(OC(=O)C(c3ccccc3)C3CCCC3)c3c(c(-c4ccc5c(c4)OCO5)c2cc1OC)C(=O)OC3` (centres unmarked) [Compound of Formula C, 9-(benzo[d][1,3]dioxol-5-yl)-1,3-dihydro-6,7-dimethoxy-1-oxonaphtho[2,3-c]furan-4-yl 2-cyclopentyl-2-phenylacetate], for which the “reduction of V-ATPase (%)” value in data set [1] stood at 14.69%. The “IC50 (μM)” value in data set [2] is on record as “No activity (Nontoxic)”.
On the same counts, the results for `COc1cccc(-c2ccc(OCCN3CCOCC3)c3ccccc23)c1` [Compound of Formula P, 4-(2-(1-(3-methoxyphenyl)naphthalen-4-yloxy)ethyl)morpholine] are 18.27% and “No activity (Nontoxic)”.
As for `O=C(CN1CCNCC1)Nc1ccc(-c2ccc3c(c2)OCO3)c2ccccc12` [Compound of Formula K, N-(1-(benzo[d][1,3]dioxol-5-yl)naphthalen-4-yl)-2-(piperazin-1-yl)acetamide], the “reduction of V-ATPase (%)” value in data set [1] came to 28.05%.
On to `c1cnc2c(OCCN3CCOCC3)ccc(-c3ccc4c(c3)OCO4)c2c1` [Compound of Formula S, 8-(2-morpholinoethoxy)-5-(benzo[d][1,3]dioxol-5-yl)quinoline], for which, in data set [1], the “reduction of V-ATPase (%)” value is 75.5%.
Same read-out and setting: in the case of `c1ccc2c(-c3ccc4c(c3)OCO4)ccc(OCCCCN3CCOCC3)c2c1` [Compound of Formula M, 4-(4-(1-(benzo[d][1,3]dioxol-5-yl)naphthalen-4-yloxy)butyl)morpholine] it was 76.16%.
On to `COc1cc2c(OC(=O)c3cccn3C)c3c(c(-c4ccc5c(c4)OCO5)c2cc1OC)C(=O)OC3` [Compound of Formula B, 9-(benzo[d][1,3]dioxol-5-yl)-1,3-dihydro-6,7-dimethoxy-1-oxonaphtho[2,3-c]furan-4-yl 1-methyl-1H-pyrrole-2-carboxylate], for which the “reduction of V-ATPase (%)” value in data set [1] is given as 15.33%. Besides, the “IC50 (μM)” value in data set [2] is “No activity (Nontoxic)”.
As to `c1ccc(COc2ccc(-c3ccc4c(c3)OCO4)c3cccnc23)cc1` [Compound of Formula H, 5-(benzo[d][1,3]dioxol-5-yl)-8-(benzyloxy)quinoline], the “reduction of V-ATPase (%)” value in data set [1] was 61.34%.
Regarding `COc1cc2c(OC3OCC(OC)C(OC)C3O)c3c(c(-c4ccc5c(c4)OCO5)c2cc1OC)C(=O)OC3` (centres unmarked) [Compound of Formula A, 9-(benzo[d][1,3]dioxol-5-yl)-6,7-dimethoxy-4-(tetrahydro-3-hydroxy-4,5-dimethoxy-2H-pyran-2-yloxy)naphtho[2,3-c]furan-1(3H)-one], the EC50 in data set [3] is above 0.1 µg/mL. Besides, in data set [1], the “reduction of V-ATPase (%)” value is listed as 13.31%. In data set [4], the cytotoxic concentration (CC50) was below 0.1 µg/mL.
As for `O=C(Nc1ccc(-c2ccc3c(c2)OCO3)c2ccccc12)c1ccco1` [Compound of Formula G, N-(1-(benzo[d][1,3]dioxol-5-yl)naphthalen-4-yl)furan-2-carboxamide], the “reduction of V-ATPase (%)” value in data set [1] was determined as 62.37%.
Regarding `O[C@H]1[C@H](O)COC(Oc2ccc(-c3ccc4c(c3)OCO4)c3ccccc23)[C@@H]1O` (stereo partly drawn) [Compound of Formula F, (3R,4S,5R)-2-(1-(benzo[d][1,3]dioxol-5-yl)naphthalen-4-yloxy)-tetrahydro-2H-pyran-3,4,5-triol], the EC50 in data set [3] was 2.9 µg/mL. Moreover, the “reduction of V-ATPase (%)” value in data set [1] is on record as 61.0%. In data set [4], the CC50 is 32 µg/mL.

In general, EC50 refers to the midpoint of the concentration-response curve. A word on the CC50: it is the concentration that lowers cell viability or growth by half.
